Reference: patent US20110039721A1, “METHOD FOR PREDICTION ABOUT CARCINOGENICITY OF SUBSTANCE IN RODENT” (Chemicals Evaluation and Research Institute, priority 2007, published 2011)

Assays:
rodent = settings: in vivo; cited from earlier work
liver = settings: in vivo; cited from earlier work
[1] = system: mRNA expressed from the genes (A) to (D) in rat liver; test: Behavior of genes (mRNA expression level, oligo-DNA microarray) in rat liver after 28-day oral administration; type: in vivo; settings: for Behavior of gene caused by administration of chemical substance, Gene No. 4846 / Behavior of gene caused by administration of chemical substance, Gene No. 2026 / Behavior of gene caused by administration of chemical substance, Gene No. 4218 / Behavior of gene caused by administration of chemical substance, Gene No. 6182 / Behavior of gene caused by administration of chemical substance, Gene No. 5600: gene group (A); for Behavior of gene caused by administration of chemical substance, Gene No. 4846: Unigene No. Rn.144554; for Behavior of gene caused by administration of chemical substance, Gene No. 2026 / Behavior of gene caused by administration of chemical substance, Gene No. 4218: Unigene No. Rn.167075; for Behavior of gene caused by administration of chemical substance, Gene No. 6182: Unigene No. Rn.5834; for Behavior of gene caused by administration of chemical substance, Gene No. 5600: Unigene No. Rn.9836; for Behavior of gene caused by administration of chemical substance, Gene No. 1494 / Behavior of gene caused by administration of chemical substance, Gene No. 2045 / Behavior of gene caused by administration of chemical substance, Gene No. 2203: gene group (B); for Behavior of gene caused by administration of chemical substance, Gene No. 1494: Unigene No. Rn.1430; for Behavior of gene caused by administration of chemical substance, Gene No. 2045: Unigene No. Rn.19329; for Behavior of gene caused by administration of chemical substance, Gene No. 2203: Unigene No. Rn.21240; for Behavior of gene caused by administration of chemical substance, Gene No. 533 / Behavior of gene caused by administration of chemical substance, Gene No. 725 / Behavior of gene caused by administration of chemical substance, Gene No. 1163 / Behavior of gene caused by administration of chemical substance, Gene No. 4973 / Behavior of gene caused by administration of chemical substance, Gene No. 4095 / Behavior of gene caused by administration of chemical substance, Gene No. 1334 / Behavior of gene caused by administration of chemical substance, Gene No. 6620 / Behavior of gene caused by administration of chemical substance, Gene No. 6303 / Behavior of gene caused by administration of chemical substance, Gene No. 5878 / Behavior of gene caused by administration of chemical substance, Gene No. 1131 / Behavior of gene caused by administration of chemical substance, Gene No. 1562 / Behavior of gene caused by administration of chemical substance, Gene No. 1741 / Behavior of gene caused by administration of chemical substance, Gene No. 893 / Behavior of gene caused by administration of chemical substance, Gene No. 6026 / Behavior of gene caused by administration of chemical substance, Gene No. 154 / Behavior of gene caused by administration of chemical substance, Gene No. 1993 / Behavior of gene caused by administration of chemical substance, Gene No. 813 / Behavior of gene caused by administration of chemical substance, Gene No. 2494 / Behavior of gene caused by administration of chemical substance, Gene No. 2546 / Behavior of gene caused by administration of chemical substance, Gene No. 3776 / Behavior of gene caused by administration of chemical substance, Gene No. 3929 / Behavior of gene caused by administration of chemical substance, Gene No. 1119 / Behavior of gene caused by administration of chemical substance, Gene No. 6742 / Behavior of gene caused by administration of chemical substance, Gene No. 5634: gene group (C); for Behavior of gene caused by administration of chemical substance, Gene No. 533: Unigene No. Rn.106184; for Behavior of gene caused by administration of chemical substance, Gene No. 725: Unigene No. Rn.108075; for Behavior of gene caused by administration of chemical substance, Gene No. 1163: Unigene No. Rn.11766; for Behavior of gene caused by administration of chemical substance, Gene No. 4973: Unigene No. Rn.118529; for Behavior of gene caused by administration of chemical substance, Gene No. 4095: Unigene No. Rn.119024; for Behavior of gene caused by administration of chemical substance, Gene No. 1334 / Behavior of gene caused by administration of chemical substance, Gene No. 6620: Unigene No. Rn.120914; for Behavior of gene caused by administration of chemical substance, Gene No. 6303: Unigene No. Rn.123063; for Behavior of gene caused by administration of chemical substance, Gene No. 5878: Unigene No. Rn.143213; for Behavior of gene caused by administration of chemical substance, Gene No. 1131: Unigene No. Rn.144946; for Behavior of gene caused by administration of chemical substance, Gene No. 1562: Unigene No. Rn.14744; for Behavior of gene caused by administration of chemical substance, Gene No. 1741: Unigene No. Rn.1647; for Behavior of gene caused by administration of chemical substance, Gene No. 893: Unigene No. Rn.164817; for Behavior of gene caused by administration of chemical substance, Gene No. 6026: Unigene No. Rn.167685; for Behavior of gene caused by administration of chemical substance, Gene No. 154: Unigene No. Rn.185941; for Behavior of gene caused by administration of chemical substance, Gene No. 1993: Unigene No. Rn.18728; for Behavior of gene caused by administration of chemical substance, Gene No. 813: Unigene No. Rn.201760; for Behavior of gene caused by administration of chemical substance, Gene No. 2494: Unigene No. Rn.23969; for Behavior of gene caused by administration of chemical substance, Gene No. 2546: Unigene No. Rn.24561; for Behavior of gene caused by administration of chemical substance, Gene No. 3776: Unigene No. Rn.43232; for Behavior of gene caused by administration of chemical substance, Gene No. 3929: Unigene No. Rn.4620; for Behavior of gene caused by administration of chemical substance, Gene No. 1119: Unigene No. Rn.9757; for Behavior of gene caused by administration of chemical substance, Gene No. 6742: Unigene No. Rn.9779; for Behavior of gene caused by administration of chemical substance, Gene No. 5634: Unigene No. Rn.9862; for Behavior of gene caused by administration of chemical substance, Gene No. 5726: gene group (D), Unigene No. Rn.9939
Summary of the method: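 Male F344 SPF rats, 5 weeks old, four per group, received carcinogens, non-carcinogens or solvent vehicle by oral gavage once daily for 28 days. Liver total RNA was then extracted. Changes of ≥1.5-fold or ≤1/1.5 versus vehicle control, in a consistent direction across carcinogens, counted as significant.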

## ClC1=C(Cl)C2(Cl)C3C4C=CC(C4)C3C1(Cl)C2(Cl)Cl (stereo not shown) [TS015, Aldrin]
rodent
  Carcinogenicity: C+
liver
  Liver carcinogenicity: Cr−
[1]; mRNA vs vehicle control group
  Behavior of gene caused by administration of chemical substance, Gene No. 4846: −
  Behavior of gene caused by administration of chemical substance, Gene No. 2026: −
  Behavior of gene caused by administration of chemical substance, Gene No. 4218: −
  Behavior of gene caused by administration of chemical substance, Gene No. 6182: +
  Behavior of gene caused by administration of chemical substance, Gene No. 5600: −
  Behavior of gene caused by administration of chemical substance, Gene No. 1494: −
  Behavior of gene caused by administration of chemical substance, Gene No. 2045: +
  Behavior of gene caused by administration of chemical substance, Gene No. 2203: +
  Behavior of gene caused by administration of chemical substance, Gene No. 533: −
  Behavior of gene caused by administration of chemical substance, Gene No. 725: −
  Behavior of gene caused by administration of chemical substance, Gene No. 1163: −
  Behavior of gene caused by administration of chemical substance, Gene No. 4973: −
  Behavior of gene caused by administration of chemical substance, Gene No. 4095: −
  Behavior of gene caused by administration of chemical substance, Gene No. 1334: −
  Behavior of gene caused by administration of chemical substance, Gene No. 6620: −
  Behavior of gene caused by administration of chemical substance, Gene No. 6303: −
  Behavior of gene caused by administration of chemical substance, Gene No. 5878: −
  Behavior of gene caused by administration of chemical substance, Gene No. 1131: −
  Behavior of gene caused by administration of chemical substance, Gene No. 1562: −
  Behavior of gene caused by administration of chemical substance, Gene No. 1741: −
  Behavior of gene caused by administration of chemical substance, Gene No. 893: −
  Behavior of gene caused by administration of chemical substance, Gene No. 6026: −
  Behavior of gene caused by administration of chemical substance, Gene No. 154: −
  Behavior of gene caused by administration of chemical substance, Gene No. 1993: −
  Behavior of gene caused by administration of chemical substance, Gene No. 813: −
  Behavior of gene caused by administration of chemical substance, Gene No. 2494: +
  Behavior of gene caused by administration of chemical substance, Gene No. 2546: −
  Behavior of gene caused by administration of chemical substance, Gene No. 3776: −
  Behavior of gene caused by administration of chemical substance, Gene No. 3929: −
  Behavior of gene caused by administration of chemical substance, Gene No. 1119: −
  Behavior of gene caused by administration of chemical substance, Gene No. 6742: −
  Behavior of gene caused by administration of chemical substance, Gene No. 5634: −
  Behavior of gene caused by administration of chemical substance, Gene No. 5726: −

## ClC1=C(Cl)[C@]2(Cl)[C@@H]3[C@@H]4C[C@@H]([C@H]5O[C@@H]45)[C@@H]3[C@@]1(Cl)C2(Cl)Cl [TS017, Dieldrin]
rodent
  Carcinogenicity: C+
liver
  Liver carcinogenicity: Cr−
[1]
  Behavior of gene caused by administration of chemical substance, Gene No. 4846: −
  Behavior of gene caused by administration of chemical substance, Gene No. 2026: −
  Behavior of gene caused by administration of chemical substance, Gene No. 4218: −
  Behavior of gene caused by administration of chemical substance, Gene No. 6182: +
  Behavior of gene caused by administration of chemical substance, Gene No. 5600: −
  Behavior of gene caused by administration of chemical substance, Gene No. 1494: +
  Behavior of gene caused by administration of chemical substance, Gene No. 2045: +
  Behavior of gene caused by administration of chemical substance, Gene No. 2203: +
  Behavior of gene caused by administration of chemical substance, Gene No. 533: +
  Behavior of gene caused by administration of chemical substance, Gene No. 725: −
  Behavior of gene caused by administration of chemical substance, Gene No. 1163: −
  Behavior of gene caused by administration of chemical substance, Gene No. 4973: −
  Behavior of gene caused by administration of chemical substance, Gene No. 4095: −
  Behavior of gene caused by administration of chemical substance, Gene No. 1334: −
  Behavior of gene caused by administration of chemical substance, Gene No. 6620: −
  Behavior of gene caused by administration of chemical substance, Gene No. 6303: −
  Behavior of gene caused by administration of chemical substance, Gene No. 5878: −
  Behavior of gene caused by administration of chemical substance, Gene No. 1131: −
  Behavior of gene caused by administration of chemical substance, Gene No. 1562: −
  Behavior of gene caused by administration of chemical substance, Gene No. 1741: −
  Behavior of gene caused by administration of chemical substance, Gene No. 893: −
  Behavior of gene caused by administration of chemical substance, Gene No. 6026: −
  Behavior of gene caused by administration of chemical substance, Gene No. 154: −
  Behavior of gene caused by administration of chemical substance, Gene No. 1993: −
  Behavior of gene caused by administration of chemical substance, Gene No. 813: −
  Behavior of gene caused by administration of chemical substance, Gene No. 2494: −
  Behavior of gene caused by administration of chemical substance, Gene No. 2546: −
  Behavior of gene caused by administration of chemical substance, Gene No. 3776: −
  Behavior of gene caused by administration of chemical substance, Gene No. 3929: −
  Behavior of gene caused by administration of chemical substance, Gene No. 1119: −
  Behavior of gene caused by administration of chemical substance, Gene No. 6742: −
  Behavior of gene caused by administration of chemical substance, Gene No. 5634: −
  Behavior of gene caused by administration of chemical substance, Gene No. 5726: −
